Three compounds from patent US20010020013A1, “Ortho-diphenol compounds, methods and pharmaceutical compositions for inhibiting parp” (GUILFORD PHARMACEUTICALS, INC., priority 1998, published 2001) can be followed below.

For one assay, the system named is C57/BL male mice. The experiment in a line: Septic shock assay (LPS plus galactosamine challenge), mortality. To be noted: 60, 20, 6 and 2 mg/kg daily IP for three days, first dose 30 min after challenge. In kind it is in vivo, mouse. As to the method: Groups of 10 C57/BL male mice weighing 18 to 20 g were administered a test compound, 1-carboxynaphthalene-1-carboxamide at the doses of 60, 20, 6 and 2 mg/kg, daily, by intraperitopeal (IP) injection for three consecutive days. Each animal was first challenged with lipopolysaccharide (LPS, from E. Coli, LD100 of […] IV) plus galactosamine (20 mg/animal IV). The first dose of test compound in a suitable vehicle was given 30 minutes after challenge, and the second and third doses were given 24 hours later on day 2 and day 3 respectively, with only the surviving animals receiving the second or third dose of the test compound. Mortality was recorded every 12 hours after challenge for the three-day testing period. 1-Carboxy-naphthalene-1-carboxamide provided a protection against mortality from septic shock of about 40%.

The subject of assay [1] is human fibroblast cells lines (W138 or BJ cells). The experiment in a line: Extending proliferative capacity and lifespan of cells. In kind it is cell-based. To be noted: untreated cells stop dividing after about 40 days. As to the method:
At the time of subdivision, the media is aspirated, and the cells rinsed with phosphate buffer saline (PBS) and then trypsinized. The cells are counted with a Coulter counter and plated at a density of 10^5 cells per cm^2 in 6-well tissue culture plates in DMEM/199 medium supplemented with 10% bovine calf serum and varying amounts ([…]: from a 100X stock solution in DMEM/M199 medium) of a PARP inhibitor of Formula I as disclosed herein. This process is repeated every 7 days until the cell appear to stop dividing. The untreated (control) cells reach senescence and stop dividing after about 40 days in culture.

In the next assay the test system is male Long-Evans rats. Kind of assay: Neuroprotective effect of DPQ on focal cerebral ischemia (distal MCA cauterization plus bilateral CCA occlusion), TTC infarct area and volume. The format is in vivo, rat. On the procedure:
Focal cerebral ischemia was produced by cauterization of the right distal MCA (middle cerebral artery) with bilateral temporary common carotid artery occlusion in male Long-Evans rats for 90 minutes. All procedures performed on the animals were approved by the University Institutional Animal Care and Use Committee of the University of Pennsylvania. A total of 42 rats (weights: 230-340 g) obtained from Charles River were used in this study. The animals fasted overnight with free access to water prior to the surgical procedure.
Two hours prior to MCA occlusion, varying amounts (control, n=14; 5 mg/kg, n=7; 10 mg/kg, n=7; 20 mg/kg, n=7; and 40 mg/kg, n=7) of the compound, 3,4-dihydro-5-[4-(1-piperidinyl)-butoxy]-1 (2H)-isoquinolinone (“DPQ”) were dissolved in dimethyl sulfoxide (DMSO) using a sonicator. A volume of 1.28 ml/kg of the resulting solution was injected intraperitoneally into fourteen rats.
Focal cerebral ischemia was produced by cauterization of the distal portion of the right MCA with bilateral temporary common carotid artery (CCA) occlusion by the procedure of Chen et al., “A Model of Focal Ischemic Stroke in the Rat: Reproducible Extensive Cortical Infarction”, Stroke 17:738-43 (1986) and/or Liu et al., “Polyethylene Glycol-conjugated Superoxide Dismutase and Catalase Reduce Ischemic Brain Injury”, Am. J. Physiol. 256:H589-93 (1989), both of which are hereby incorporated by reference. […]
Two hours after MCA occlusion, the animals were given the same doses of the PARP inhibitor as in the pre-treatment. […] To avoid artifacts due to edema, the damaged area was calculated by subtracting the area of the normal tissue in the hemisphere ipsilateral to the stroke from the area of the hemisphere contralateral to the stroke, by the method of Swanson et al., “A Semiautomated Method for Measuring Brain Infarct Volume”, J. Cereb. […] The total volume of infarction was calculated by summation of the damaged volume of the brain slices.

SMILES strings stand for the structures.

As to `NC(=O)C1(C(=O)O)CC=Cc2ccccc21` (stereo not shown) [1-Carboxy-naphthalene-1-carboxamide, 1-carboxynaphthalene-1-carboxamide], the “protection against mortality from septic shock” value in the assay on C57/BL male mice is listed as “about 40%”.
With `NC(=O)c1cccc(N)c1` [3-amino-benzamide], the “effect on lifespan of the cells” value is “little or no effect” in assay [1] (10 μM) and “lengthen the lifespan of the cells” in assay [1] (100 μM). Besides, the “time in culture at which cells still divide” value in assay [1] (1 mM) is “still divide after 60 days”.
Regarding `O=C1NCCc2c(OCCCCN3CCCCC3)cccc21` [DPQ, 3,4-dihydro-5-[4-(1-piperidinyl)-butoxy]-1 (2H)-isoquinolinone], the “distribution of the cross-sectional infarct area (FIG. 1 curve)” value with male Long-Evans rats (5 mg/kg) was “approximately halfway between the control and the 10 mg/kg curves”; in the assay on male Long-Evans rats (20 mg/kg) it was “approximately halfway between the control and the 10 mg/kg curves”; in the assay with male Long-Evans rats (40 mg/kg), “close to the control”.
